Measurements reported in ChEMBL document CHEMBL1201862, “PubChem BioAssay data set” (2004).
Activity calls are given as the source filed them.

How the values were obtained:
[1] = target: Voltage-dependent T-type calcium channel subunit alpha-1H (Homo sapiens, UniProt O95180); assay type: functional;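 note: channel activity triggered by adding a high calcium stimulation buffer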
H9c2 = test: cells; assay type: functional, cell-based; conditions: Rattus norvegicus, H9c2, Myocardium;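 note: confirmatory concentration-response retest of ultra-high-throughput screening hits for modulation of myocardial damage; cell death induced by hydrogen peroxide oxidative stress; compound pretreatment for 60 min then peroxide exposure for 2 h; potency is for protecting the cells against peroxide damage rather than for killing them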
[2] = A549 cell cytotoxicity, dose response, cytotoxicity control, plate reader, cherry-pick, antagonist series (AID 743412); assay type: functional, cell-based
[3] = LGR2 antagonists, dose response, cell-based, HEK293, CRE-luciferase reporter, cherry pick, set 2 (AID 743343); assay type: functional;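 note: transfected cells were stimulated with diluted bursicon conditioned medium after compound addition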
[4] = MC4R antagonists, dose response, counter-screen for LGR2 antagonist project, cell-based, plate reader, cherry pick (AID 743444); assay type: functional;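 note: transfected HEK 293 cells stimulated with alpha-MSH peptide; potency of inhibitors of the alpha-MSH evoked signal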
[5] = HEK293 cell cytotoxicity, dose response, cytotoxicity control, plate reader, cherry-picked samples (AID 743446); assay type: functional, cell-based
P388/ADR = test: cells; assay type: functional; conditions: Mus musculus
SN12K1 = test: cells; assay type: functional; conditions: Homo sapiens
P388 = test: cells; assay type: functional; conditions: Mus musculus
[6] = target: T1, Adenosylmethionine-8-amino-7-oxononanoate aminotransferase (Mycobacterium tuberculosis, UniProt P9WQ81); test: Mycobacterium tuberculosis BioA enzyme inhibitor Measured in Biochemical System Using Plate Reader - 2163-02_Inhibitor_Dose_CherryPick_Activity.; assay type: functional, Mycobacterium tuberculosis UT205
T1 sequence (P9WQ81 whole entry): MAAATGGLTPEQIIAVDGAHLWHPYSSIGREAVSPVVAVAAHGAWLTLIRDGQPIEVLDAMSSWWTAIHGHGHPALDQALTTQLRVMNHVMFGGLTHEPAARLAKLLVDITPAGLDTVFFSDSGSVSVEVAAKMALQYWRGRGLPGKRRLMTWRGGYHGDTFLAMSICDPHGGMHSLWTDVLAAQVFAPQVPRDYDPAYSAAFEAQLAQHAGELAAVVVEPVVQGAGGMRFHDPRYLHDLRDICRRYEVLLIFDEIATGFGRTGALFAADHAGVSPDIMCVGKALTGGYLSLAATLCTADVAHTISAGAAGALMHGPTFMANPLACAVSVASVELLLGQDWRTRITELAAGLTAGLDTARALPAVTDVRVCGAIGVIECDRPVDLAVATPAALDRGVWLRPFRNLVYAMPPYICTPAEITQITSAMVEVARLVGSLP

Voltage-dependent T-type calcium channel subunit alpha-1H, sequence (O95180 whole entry): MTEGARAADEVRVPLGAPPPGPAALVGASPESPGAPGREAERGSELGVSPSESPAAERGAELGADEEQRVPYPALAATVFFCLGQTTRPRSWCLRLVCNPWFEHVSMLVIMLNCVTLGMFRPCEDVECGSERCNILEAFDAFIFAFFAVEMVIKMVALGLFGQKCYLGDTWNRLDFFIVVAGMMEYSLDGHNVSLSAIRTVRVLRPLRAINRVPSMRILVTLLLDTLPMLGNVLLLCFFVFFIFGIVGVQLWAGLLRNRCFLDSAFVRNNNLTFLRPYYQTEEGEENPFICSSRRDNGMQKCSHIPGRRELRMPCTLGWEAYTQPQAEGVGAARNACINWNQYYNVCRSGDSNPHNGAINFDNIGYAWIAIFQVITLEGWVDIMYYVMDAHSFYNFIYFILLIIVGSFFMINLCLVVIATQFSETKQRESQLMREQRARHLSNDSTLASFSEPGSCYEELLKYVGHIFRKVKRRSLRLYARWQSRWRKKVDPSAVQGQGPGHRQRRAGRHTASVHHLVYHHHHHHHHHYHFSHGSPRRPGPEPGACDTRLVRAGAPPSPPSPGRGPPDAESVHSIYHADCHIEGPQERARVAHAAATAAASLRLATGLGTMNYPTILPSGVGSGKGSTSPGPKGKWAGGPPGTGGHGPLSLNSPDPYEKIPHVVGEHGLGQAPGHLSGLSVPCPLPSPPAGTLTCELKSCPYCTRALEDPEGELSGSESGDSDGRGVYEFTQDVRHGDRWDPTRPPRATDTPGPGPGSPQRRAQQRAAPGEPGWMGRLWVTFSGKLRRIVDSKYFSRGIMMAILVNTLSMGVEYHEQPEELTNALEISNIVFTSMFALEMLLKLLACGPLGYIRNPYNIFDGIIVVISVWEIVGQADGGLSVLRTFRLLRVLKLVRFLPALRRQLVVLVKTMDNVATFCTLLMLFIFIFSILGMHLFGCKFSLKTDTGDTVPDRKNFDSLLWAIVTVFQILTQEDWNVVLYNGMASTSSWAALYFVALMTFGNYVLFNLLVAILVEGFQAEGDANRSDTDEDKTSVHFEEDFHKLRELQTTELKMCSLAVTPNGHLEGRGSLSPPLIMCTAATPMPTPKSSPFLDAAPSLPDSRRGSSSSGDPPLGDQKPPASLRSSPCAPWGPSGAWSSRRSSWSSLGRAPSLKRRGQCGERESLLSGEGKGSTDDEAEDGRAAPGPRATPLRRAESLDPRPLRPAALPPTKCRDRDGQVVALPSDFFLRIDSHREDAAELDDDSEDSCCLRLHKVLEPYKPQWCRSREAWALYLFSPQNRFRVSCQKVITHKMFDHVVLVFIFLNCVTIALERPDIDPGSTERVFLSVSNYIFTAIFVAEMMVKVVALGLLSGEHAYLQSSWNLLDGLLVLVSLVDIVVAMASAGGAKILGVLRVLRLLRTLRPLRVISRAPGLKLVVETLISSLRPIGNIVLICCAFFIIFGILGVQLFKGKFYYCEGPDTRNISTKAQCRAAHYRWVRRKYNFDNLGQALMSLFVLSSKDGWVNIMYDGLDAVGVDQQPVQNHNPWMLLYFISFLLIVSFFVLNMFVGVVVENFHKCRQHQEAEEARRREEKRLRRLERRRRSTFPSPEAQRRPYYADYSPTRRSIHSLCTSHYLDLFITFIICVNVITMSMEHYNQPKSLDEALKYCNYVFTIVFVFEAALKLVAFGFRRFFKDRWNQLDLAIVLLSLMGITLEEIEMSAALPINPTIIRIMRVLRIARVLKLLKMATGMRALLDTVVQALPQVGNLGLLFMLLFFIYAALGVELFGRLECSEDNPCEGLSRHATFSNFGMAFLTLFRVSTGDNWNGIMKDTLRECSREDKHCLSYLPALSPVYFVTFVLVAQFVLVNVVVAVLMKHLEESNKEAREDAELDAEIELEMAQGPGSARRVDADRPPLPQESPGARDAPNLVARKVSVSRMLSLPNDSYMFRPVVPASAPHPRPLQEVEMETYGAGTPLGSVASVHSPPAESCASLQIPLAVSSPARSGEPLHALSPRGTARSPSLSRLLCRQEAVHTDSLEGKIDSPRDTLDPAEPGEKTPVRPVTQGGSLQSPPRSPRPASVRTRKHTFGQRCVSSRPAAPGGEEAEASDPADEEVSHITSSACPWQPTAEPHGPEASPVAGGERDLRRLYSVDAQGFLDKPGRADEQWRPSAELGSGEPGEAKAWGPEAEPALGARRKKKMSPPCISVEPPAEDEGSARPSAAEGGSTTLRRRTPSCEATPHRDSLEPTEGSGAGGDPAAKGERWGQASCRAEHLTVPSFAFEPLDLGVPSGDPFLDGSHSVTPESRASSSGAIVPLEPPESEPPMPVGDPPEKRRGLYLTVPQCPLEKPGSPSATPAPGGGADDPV

Compound | GI50 (P388/ADR) | GI50 (SN12K1) | GI50 (P388) | other results
CCc1nnc(NC(=O)CC(CN(C)S(=O)(=O)c2ccccc2)c2ccccc2)s1 (stereo unspecified) |  |  |  | EC50 [1]: 2.4 µM (active)
CCOc1ccc(-n2cc(-c3ccccc3)c3c(N4CCOCC4)ncnc32)cc1 |  |  |  | IC50 (H9c2): > 79 µM (inactive); AC50 [2]: 36.1 µM (active); AC50 [3]: 56.7 µM (active); AC50 [4]: 47.3 µM (active); AC50 [5]: > 52 µM (inactive)
CC1CC(C)CN(C(=O)CSc2nnc(-c3ccc(Cl)s3)o2)C1 (stereo unspecified) |  |  |  | EC50 [1]: 10.8 µM (active)
CCc1cc(-c2ccc3c(c2)COc2c4ccccc4nn2-3)on1 |  |  |  | AC50 [2]: > 52 µM (inactive); AC50 [3]: 22.7 µM (active); AC50 [4]: 40.4 µM (active); AC50 [5]: 47.8 µM (active)
COc1cc2c(c(OC)c1OC)C(=O)NCCC2 | > 100 µM (inactive) | > 100 µM (inactive) | > 100 µM (inactive) | 
O=C1CCC23CC(C=CC=C12)n1c(=O)n(-c2ccccc2)c(=O)n13 (stereo unspecified) | 31 µM (inactive) | > 100 µM (inactive) | 49.9 µM (inactive) | 
COc1ccc(-c2nc3ccc([N+](=O)[O-])cc3c(=O)[nH]2)cc1 | > 100 µM (inactive) | 26 µM (inactive) | > 100 µM (inactive) | 
C=C1C(C)C2C(Cc3ccccc3)NC(=O)C23C(OC(C)=O)/C=C/C(C)(O)CC(C)C/C=C/C3C1O (stereo unspecified) | 2.58 µM (inactive) | 0.0294 µM (active) | 0.608 µM (active) | 
N#C[C@H](OC1OC(COC2OC(CO)C(O)C(O)C2O)C(O)C(O)C1O)c1ccccc1 (stereo partly specified) | 170 µM (inactive) | > 250 µM (inactive) | 232 µM (inactive) | 
CCNC(=O)[C@H]1[C@H](CO)[C@H]2Cn3c(ccc(-c4ccccc4)c3=O)[C@H]2N1C(=O)Cc1cccnc1 |  |  |  | AC50 [6]: 16.3 µM (active)
CN1CCN(c2ccc(Cl)cc2NC(=O)C2COc3ccccc3O2)CC1 (stereo unspecified) |  |  |  | EC50 [1]: 8.08 µM (active)
CNC(=O)ON(C(C)=O)C(=O)NC [CARACEMIDE] | 21.4 µM (inactive) | 50.9 µM (inactive) | 16.4 µM (inactive) | 
